In patent US20230105212A1, “BIPHENYL DERIVATIVE INHIBITOR, PREPARATION METHOD THEREFOR AND USE THEREOF” (SHANGHAI HANSOH BIOMEDICAL CO., LTD., priority 2020, published 2023):
Where two headings read alike, the source gives them in different places.

Assays:
human PD-L1 protein = target: T1, human PD-L1 protein (Homo sapiens, UniProt Q9NZQ7); test: Thermal shift: melting temperature of PD-L1 protein; format: binding; conditions: for ΔTm at 10 µM: read-out: ΔTm (° C.)
T1 construct: purchased Acro Biosystems PD1-H5229
Experimental: Test Embodiment 4. Test of Combination of the Compounds of the Present Disclosure to Improve the Stability (Melting Temperature) of PD-L1 Protein Experimental purpose: To test the ability of compounds to enhance the stability of PD-L1 protein and increase the melting temperature of the protein. Experimental method: […] A solution containing […] HEPES, SYPRO Orange, and 150 mM NaCl was prepared as experimental buffer, and human PD-L1 protein was added at a final concentration of 2 μM. […] PCR tube was put into the PCR machine, and the melt curve function was selected to detect the melting temperature of PD-L1 protein in different treatment groups (heated from 25° C. to 95° C., 0.03° C./s). The experimental data file of the PCR instrument was imported into the thermal shift software to obtain the melting temperature (Tm) of each treatment group, and the Tm of the DMSO vehicle control group was subtracted to obtain the change value (ΔTm) of the melting temperature, as shown in the following table: […]

[1] = target: T2, PD-L1 protein on the surface of MC38-hPDL1 tumor cells (Homo sapiens, UniProt Q9NZQ7); test: Induction of endocytosis of PD-L1 on the surface of tumor cells (flow cytometry); format: cell-based; conditions: 16 hours incubation; for Emax: MC38-hPDL1 cells, read-out: MC38 maximum endocytosis rate; for IC50: inducing endocytosis of PD-L1, MC38-hPDL1 cells, read-out: MC38 IC50
T2 construct: expressed in transfected cells; host or cells: MC38-hPDL1 (mouse colon cancer cells)
Method in brief: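 MC38-hPDL1 mouse colon cancer cells overexpressing human PD-L1 were exposed to compound dilutions for 16 h at 37 °C. Surface PD-L1 was then stained with PE anti-human CD274 for 30 min at room temperature and measured by flow cytometry. Endocytosis rate versus concentration was fitted by nonlinear regression to give IC50.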

[2] = compound 10 μM, PD-L1 protein 2 μM, Tm minus DMSO vehicle control

T2 sequence (Q9NZQ7 19-290): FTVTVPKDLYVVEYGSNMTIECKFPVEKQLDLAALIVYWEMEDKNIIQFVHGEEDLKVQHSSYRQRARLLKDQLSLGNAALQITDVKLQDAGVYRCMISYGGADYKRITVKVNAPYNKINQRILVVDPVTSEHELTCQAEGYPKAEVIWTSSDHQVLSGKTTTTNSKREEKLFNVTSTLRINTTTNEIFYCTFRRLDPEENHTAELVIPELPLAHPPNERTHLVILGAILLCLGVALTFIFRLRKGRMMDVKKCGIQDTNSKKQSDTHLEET
T1 sequence (Q9NZQ7 19-238 limits assumed): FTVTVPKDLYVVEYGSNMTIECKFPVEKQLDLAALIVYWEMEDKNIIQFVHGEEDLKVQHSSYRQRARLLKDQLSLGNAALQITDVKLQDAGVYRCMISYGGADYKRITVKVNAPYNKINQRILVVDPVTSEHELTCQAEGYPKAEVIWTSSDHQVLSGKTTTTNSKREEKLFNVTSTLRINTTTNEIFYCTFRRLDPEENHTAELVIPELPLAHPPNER

SMILES | ΔTm at 10 µM (human PD-L1 protein; [2]) [°C] | Emax [1] [%] | IC50 [1] [nM] | ΔTm (° C.) (human PD-L1 protein; [2]) [°C] | ΔTm at 10 µM (human PD-L1 protein) [°C]
COc1nc(-c2cccc(-c3cccc(NC(=O)c4nc5c(n4C)CCN(C)C5)c3Cl)c2Cl)ccc1CN1CC2CC(C1)N2C(C)=O [Embodiment 206, N-(3′-(5-((6-Acetyl-3,6-diazabicyclo[3.1.1]heptan-3-yl)methyl)-6-methoxypyridin-2-yl)-2,2′-dichloro-[1,1′-biphenyl]-3-yl)-1,5-dimethyl-4,5,6,7-tetrahydro-1H-imidazo[4,5-c]pyridine-2-carboxamide] | 11.6 | 90 |  |  | 
COc1nc(-c2cccc(-c3cccc(NC(=O)c4nc5c(n4C4CC4)CCN(C)C5)c3Cl)c2Cl)ccc1CN[C@H]1CCOC[C@@H]1O (relative stereo) [Embodiment 244, 1-Cyclopropyl-N-(2,2′-dichloro-3′-(5-(((trans-3-hydroxytetrahydro-2H-pyran-4-yl)amino)methyl)-6-methoxypyridin-2-yl)-[1,1′-biphenyl]-3-yl)-5-methyl-4,5,6,7-tetrahydro-1H-imidazo[4,5-c]pyridine-2-carboxamide] | 11.4 | 94 |  |  | 
COc1nc(-c2cccc(-c3cccc(NC(=O)c4nc5c(n4C)CCN(C)C5)c3Cl)c2Cl)ccc1CN[C@@H]1CCOC[C@@H]1F [Embodiment 115, N-(2,2′-Dichloro-3′-(5-((((3R,4R)-3-fluorotetrahydro-2H-pyran-4-yl)amino)methyl)-6-methoxypyridin-2-yl)-[1,1′-biphenyl]-3-yl)-1,5-dimethyl-4,5,6,7-tetrahydro-1H-imidazo[4,5-c]pyridine-2-carboxamide] |  | 93 | 5.3 |  | 12.7
COc1nc(-c2cccc(-c3cccc(NC(=O)c4nc5c(n4C)CCN(C)C5)c3Cl)c2Cl)ccc1CNCC1(C#N)CC1 [Embodiment 213, N-(2,2′-Dichloro-3′-(5-((((1-cyanocyclopropyl)methyl)amino)methyl)-6-methoxypyridin-2-yl)-[1,1′-biphenyl]-3-yl)-1,5-dimethyl-4,5,6,7-tetrahydro-1H-imidazo[4,5-c]pyridine-2-carboxamide] | 14.5 | 96 | 4.1 |  | 
COc1nc(-c2cccc(-c3cccc(NC(=O)c4nc5c(n4C)CCN(C)C5)c3Cl)c2Cl)ccc1CN1CC2(C1)CN(C(=O)C1CC1)C2 [Embodiment 187, N-(2,2′-Dichloro-3′-(5-((6-(cyclopropylcarbonyl)-2,6-diazaspiro[3.3]heptan-2-yl)methyl)-6-methoxypyridin-2-yl)-[1,1′-biphenyl]-3-yl)-1,5-dimethyl-4,5,6,7-tetrahydro-1H-imidazo[4,5-c]pyridine-2-carboxamide] | 21.1 | 95 | 1.1 |  | 
COc1cc(C(=O)Nc2cccc(-c3cccc(NC(=O)c4nc5c(n4C)CCN(C)C5)c3Cl)c2C)ncc1CNc1ccc(C)nc1 [Embodiment 92, N-(2-Chloro-3′-(4-methoxy-5-(((6-methylpyridin-3-yl)amino)methyl)picolinamido)-2′-methyl-[1,1′-biphenyl]-3-yl)-1,5-dimethyl-4,5,6,7-tetrahydro-1H-imidazo[4,5-c]pyridine-2-carboxamide] | 10.5 | 83 | 9 |  | 
COC(=O)[C@H](CO)NCc1cnc(-c2cccc(-c3cccc(NC(=O)c4nc5c(n4C)CCN(C)C5)c3Cl)c2Cl)nc1OC [Embodiment 227, Methyl ((2-(2,2′-dichloro-3′-(1,5-dimethyl-4,5,6,7-tetrahydro-1H-imidazo[4,5-c]pyridine-2-carboxamido)-[1,1′-biphenyl]-3-yl)-4-methoxypyrimidin-5-yl)methyl)-L-serinate] | 11.9 |  |  |  | 
COc1nc(-c2cccc(-c3cccc(NC(=O)c4nc5c(n4C)CCN(C)C5)c3Cl)c2Cl)ccc1CN1CC2(CCN(C(=O)C(C)C)C2)C1 [Embodiment 196, N-(2,2′-Dichloro-3′-(5-((6-isobutyryl-2,6-diazaspiro[3.4]octan-2-yl)methyl)-6-methoxypyridin-2-yl)-[1,1′-biphenyl]-3-yl)-1,5-dimethyl-4,5,6,7-tetrahydro-1H-imidazo[4,5-c]pyridine-2-carboxamide] | 12.4 | 96 |  |  | 
CCn1c(C(=O)Nc2cccc(-c3cccc(-c4ccc(CNC5COC5)c(OC)n4)c3Cl)c2Cl)nc2c1CCN(C)C2 [Embodiment 236, N-(2,2′-Dichloro-3′-(6-methoxy-5-((oxetan-3-ylamino)methyl)pyridin-2-yl)-[1,1′-biphenyl]-3-yl)-1-ethyl-5-methyl-4,5,6,7-tetrahydro-1H-imidazo[4,5-c]pyridine-2-carboxamide] | 10.6 | 90 |  |  | 
COc1cc(C(=O)Nc2cccc(-c3cccc(NC(=O)c4nc5c(n4C)CCN(C)C5)c3Cl)c2C)ncc1CNc1cc(C)ncn1 [Embodiment 91, N-(2-Chloro-3′-(4-methoxy-5-(((6-methylpyrimidin-4-yl)amino)methyl)picolinamido)-2′-methyl-[1,1′-biphenyl]-3-yl)-1,5-dimethyl-4,5,6,7-tetrahydro-1H-imidazo[4,5-c]pyridine-2-carboxamide] | 10.3 | 81 | 14 |  | 
COc1nc(-c2cccc(-c3cccc(NC(=O)c4nc5c(n4C)CCN(C)C5)c3Cl)c2Cl)ccc1CN1C2CC1CN(C(=O)C(C)C)C2 [Embodiment 210, N-(2,2′-Dichloro-3′-(5-((3-isobutyryl-3,6-diazabicyclo[3.1.1]heptan-6-yl)methyl)-6-methoxypyridin-2-yl)-[1,1′-biphenyl]-3-yl)-1,5-dimethyl-4,5,6,7-tetrahydro-1H-imidazo[4,5-c]pyridine-2-carboxamide] | 10.7 | 88 |  |  | 
COc1nc(-c2cccc(-c3cccc(NC(=O)c4nc5c(n4C)CCN(C)C5)c3Cl)c2Cl)ccc1CN1CC2(C1)CN(C(=O)C(F)(F)F)C2 [Embodiment 189, N-(2,2′-Dichloro-3′-(6-methoxy-5-((6-(2,2,2-trifluoroacetyl)-2,6-diazaspiro[3.3]heptan-2-yl)methyl)pyridin-2-yl)-[1,1′-biphenyl]-3-yl)-1,5-dimethyl-4,5,6,7-tetrahydro-1H-imidazo[4,5-c]pyridine-2-carboxamide] | 19.5 | 96 |  |  | 

The next lines start with results.

ΔTm at 10 µM (human PD-L1 protein; [2]) [°C] | Emax [1] [%] | IC50 [1] [nM] | ΔTm (° C.) (human PD-L1 protein; [2]) [°C] | SMILES | ΔTm at 10 µM (human PD-L1 protein) [°C]
12.5 | 95 |  |  | COc1nc(-c2cccc(-c3cccc(NC(=O)c4nc5c(n4C)CCN(C)C5)c3Cl)c2Cl)ccc1CN1CCN(C(=O)C2CC2)CC1 [Embodiment 200, N-(2,2′-Dichloro-3′-(5-((4-(cyclopropylcarbonyl)piperazin-1-yl)methyl)-6-methoxypyridin-2-yl)-[1,1′-biphenyl]-3-yl)-1,5-dimethyl-4,5,6,7-tetrahydro-1H-imidazo[4,5-c]pyridine-2-carboxamide] | 
14.9 | 94 | 11.6 |  | COc1nc(-c2cccc(-c3cccc(NC(=O)c4nc5c(n4C)CCN(C)C5)c3Cl)c2Cl)ccc1CN1CCC(C)(C#N)CC1 [Embodiment 212, N-(2,2′-Dichloro-3′-(5-((4-cyano-4-methylpiperidin-1-yl)methyl)-6-methoxypyridin-2-yl)-[1,1′-biphenyl]-3-yl)-1,5-dimethyl-4,5,6,7-tetrahydro-1H-imidazo[4,5-c]pyridine-2-carboxamide] | 
11.4 | 93 |  |  | COc1nc(-c2cccc(-c3cccc(NC(=O)c4nc5c(n4C)CCN(C)C5)c3Cl)c2Cl)ccc1CN1CCN(C(=O)C(C)C)CC1 [Embodiment 199, N-(2,2′-Dichloro-3′-(5-((4-isobutyrylpiperazin-1-yl)methyl)-6-methoxypyridin-2-yl)-[1,1′-biphenyl]-3-yl)-1,5-dimethyl-4,5,6,7-tetrahydro-1H-imidazo[4,5-c]pyridine-2-carboxamide] | 
14.6 | 95 | 3.1 |  | COc1nc(-c2cccc(-c3cccc(NC(=O)c4nc5c(n4C)CCN(C)C5)c3Cl)c2Cl)ccc1CN1CCC(C#N)CC1 [Embodiment 211, N-(2,2′-Dichloro-3′-(5-((4-cyanopiperidin-1-yl)methyl)-6-methoxypyridin-2-yl)-[1,1′-biphenyl]-3-yl)-1,5-dimethyl-4,5,6,7-tetrahydro-1H-imidazo[4,5-c]pyridine-2-carboxamide] | 
16.3 | 97 |  |  | COc1nc(-c2cccc(-c3cccc(NC(=O)c4nc5c(n4C)CCN(C)C5)c3Cl)c2Cl)ccc1CN1CC(CC#N)C1 [Embodiment 182, N-(2,2′-Dichloro-3′-(5-((3-(cyanomethyl)azetidin-1-yl)methyl)-6-methoxypyridin-2-yl)-[1,1′-biphenyl]-3-yl)-1,5-dimethyl-4,5,6,7-tetrahydro-1H-imidazo[4,5-c]pyridine-2-carboxamide] | 
13.5 | 95 |  | 10.5 | COc1nc(-c2cccc(-c3cccc(NC(=O)c4nc5c(n4C)CCN(C)C5)c3Cl)c2Cl)ccc1CN1CCN(C(C)=O)CC1 [Embodiment 203, N-(3′-(5-((4-Acetylpiperazin-1-yl)methyl)-6-methoxypyridin-2-yl)-2,2′-dichloro-[1,1′-biphenyl]-3-yl)-1,5-dimethyl-4,5,6,7-tetrahydro-1H-imidazo[4,5-c]pyridine-2-carboxamide] | 
